For one data set, the system named is L1210 leukemic cells. Briefly: Chemotherapy of mice injected intravenously with L1210 leukemic cells; increase in life span (ILS) versus controls. The data set is classed as in vivo. Conditions: preliminary. The source says:
To deliver the water insoluble cis Pt (II) analogues for chemotheraphy, they were encapsulated in sonicated phosphatidylcholine (PC) vesicles. To prepare these PC vesicles, both the cis Pt (II) analogue and PC had to be lyophilized from cyclohexane or benzene to give a dry powder for hydration by an aqueous medium. Simply drying down an organic solution of both the cis Pt (II) analogue and the PC gave unsatisfactory results upon hydration. The lyophilized samples were hydrated with physiological saline and then sonicated at 4°C using a W-375 Branson sonicator, under a nitrogen atmosphere. The sonicated samples were spun at 12,000 x G for 5 minutes to remove any titanium fragments from the sonicator probe and any undispersed lipid. […] Therefore all preparations were passed down a G-50 gel permeation column to separate any free cis Pt (II) from the hydrophobic cis Pt (II) analogue encapsulated in egg PC vesicles had better structural integrity and more uniform size distribution than the same analogues in soy PC vesicles. […] That is, the vesicles containing the cis Pt (II) analogues that had the lowest amounts of free phosphatidic acid, had the best structural stability and smaller size ranges. This is in direct contrast to the effect of phosphatidic acid in PC vesicles in the absence of the cis Pt (II) analogues.
The fractions from the G-50 column containing the encapsulated cis Pt (II) analogues were concentrated by ultrafiltration to the desired concentration for chemotheraphy studies.
Various compounds synthesized and incorporated in liposomal vesicles in the foregoing manner were employed in the chemotherapy of mice. The testing consisted of injections of 10 5 L1210 leukemic cells intravenuously into mice. One day later, a single -intravenous dose of the cis Pt (II) analogue in a sonicated PC vesicle was given. Increase in life span (ILS) was then measured relative to control animals who received only saline or PC vesicles alone as intravenous injections. Data are shown in Table I, together with data on some tests in which samples were not passed through a gel permeation column to remove free cis Pt (II), but an injectable preparation was made by the addition of "Tween" 80.

A short description of data set [1]: Toxicity (LD10) of the cis Pt (II) analogues in PC vesicles. It counts as in vivo, mice. As to conditions: passed through G-50 column, preliminary.
The mark [2] stands for this setting: Soy PC vesicle, passed through G-50 column, single intravenous dose one day after L1210 cells i.v.
[3] abbreviates: Soy PC vesicle, passed through G-50 column, single intravenous dose.
[4] abbreviates: Egg PC vesicle, passed through G-50 column, single intravenous dose one day after L1210 cells i.v.
Setting [5] is: Egg PC vesicle, passed through G-50 column, single intravenous dose.

For the substance “Soy Phosphaditic Acid Bis Cyclohexylamine Cis Pt (II)”, the “% ILS at Optimal Dose” value with L1210 leukemic cells (setting [2]) stood at 16%. Besides, in the data set on L1210 leukemic cells (setting [3]), the “Optimal Dose” value was found to be 155 mg Pt/kg. For the same substance, the LD10 in data set [1] (Soy PC vesicle) is given as 500 mg Pt/kg.
Regarding “Soy Phosphatidic Acid Bis Isoamylamine Cis Pt (II)”, the “% ILS at Optimal Dose” value with L1210 leukemic cells (setting [2]) is 8%. Further, the “Optimal Dose” value in the data set with L1210 leukemic cells (setting [3]) is listed as 155 mg Pt/kg. Further, the LD10 in data set [1] (Soy PC vesicle) stood at 345 mg Pt/kg.
With “Dipalmitoyl Phosphatidic Acid 1,2 Diaminocyclohexane Cis Pt (II) [Dipalmitoyl phosphatidic acid DAC]”, in the data set on L1210 leukemic cells (setting [4]), the “% ILS at Optimal Dose” value amounted to 100%. Moreover, in the data set on L1210 leukemic cells (setting [5]), the “Optimal Dose” value is given as 39 mg Pt/kg. In data set [1] (Egg PC vesicle), this substance gave an LD10 of 58 mg Pt/kg.
Take “Egg Phosphaditic Acid 1,2 Diaminocyclohexane Cis Pt (II) [Egg phosphatidic acid DAC]”: the “% ILS at Optimal Dose” value in the data set on L1210 leukemic cells (setting [4]) was determined as 50%. Moreover, the “Optimal Dose” value in the data set with L1210 leukemic cells (setting [5]) worked out at 26 mg Pt/kg. In data set [1] (Egg PC vesicle), this substance had an LD10 of more than 58 mg Pt/kg.
As to “Soy Phosphatidic Acid Bis Cyclopentylamine Cis Pt (II)”, in the data set with L1210 leukemic cells (setting [2]), the “% ILS at Optimal Dose” value is reported as 16%. In addition, the “Optimal Dose” value in the data set with L1210 leukemic cells (setting [3]) stood at 125 mg Pt/kg. Also, the LD10 in data set [1] (Soy PC vesicle) is 125 mg Pt/kg.
As to “Dioleyl Phosphaditic Acid 1,2 Diaminocyclohexane Cis Pt (II) [Dioleyl phosphatidic acid DAC]”, the “% ILS at Optimal Dose” value is given as 83% in the data set on L1210 leukemic cells (setting [4]); 0% in the data set with L1210 leukemic cells (Soy PC vesicle, samples not treated by G-50 column and Tween-80 added, single intravenous dose). Moreover, the “Optimal Dose” value in the data set on L1210 leukemic cells (setting [5]) is given as 39 mg Pt/kg. Besides, in data set [1] (Egg PC vesicle), the LD10 amounted to 58 mg Pt/kg.

The record behind these values is patent EP0113508A1, “Hydrophobic platinum compounds and their preparation” (Inco Research & Development Center, Inc., priority 1982, dated 1984).
